In patent publication US8975265B2, “Substituted imidazo[1,2-a]pyrimidines and —pyridines” (Bayer Intellectual Property GmbH, priority 2010, dated 2015):

What was measured:
[1] = system: KPL-4 breast cancer cell line; assay: Tumor cell proliferation assay (CellTiter-Glo, 72 h), KPL-4; type: cell-based; conditions: KPL4, 72h drug exposure
Summary of the method: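 KPL-4 cells were treated with compound for 72 h at 37°C. Viability was measured as ATP by CellTiter-Glo luminescence, with a separate t=0 plate read after overnight attachment. A reference compound was run as standard.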

[2] = system: p-4E-BP1-T70 in KPL4 breast tumour cell line; assay: Cellular p-4E-BP1-T70 assay; type: cell-based; conditions: 2 hours treatment, read-out: P4EBP1-T70 median IC50
Protocol: The molecular mechanism of action was investigated in a set of experiments to assess the inhibition of the PI3K-AKT-mTOR pathway in responsive cell lines such as KPL4 breast tumour cell line (PIK3CAH1047R, HER20/E and hormone independent). The phospho-substrates of PI3K-AKT-mTOR axis were used as the read-outs to reflect pathway inhibition. Cells were seeded at 60-80% confluency per well in 96-well cell culture plates. After overnight incubation at 37° C. 5% CO2, cells were treated with compounds and vehicle at 37° C. for 2 hours. Thereafter, cells were lysed in 150 μl lysis buffer and the levels of phospho-AKT at T308 and S473 and p-4E-BP1 at T70 sites were determined with the corresponding AlphaScreen® SureFire® assay kits (Perkin Elmer: 4E-BP1 Assay Kit Cat # TRG4E2S10K; Akt 1/2/3 p-Ser 473 #TGRA4S500 and Akt 1/2/3 p-Thr 308 #TGRA3S500 as well as IgG detection Kit #6760617M) as described in the manuals. All measurements where at least done in duplicates and confirmed by independent repetition.

[3] = system: p-AKT1/2/3-S473 in KPL4 breast tumour cell line; assay: Cellular p-AKT1/2/3-S473 assay; type: cell-based; conditions: KPL4 breast tumour cell line, 2 hours treatment; read-out: pAKT-S743 median IC50
Summary of the method: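 KPL4 cells (PIK3CA H1047R, HER2 0/E, hormone independent) were seeded at 60–80% confluency, cultured overnight, then exposed to compound for 2 h at 37 °C. pAKT-S473 and total AKT measured together by MSD Akt Duplex on 20 µg extract; pAKT expressed as % of total AKT, at least duplicate with independent repeats.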

[4] = molecular target: His-tagged human recombinant kinase full-length Akt1 (Homo sapiens (Human), UniProt P31749); assay: Akt1 kinase assay (TR-FRET); type: biochemical; conditions: 10 μM ATP; read-out: Akt1, median IC50
His-tagged human recombinant kinase full-length Akt1, sequence (P31749 whole entry): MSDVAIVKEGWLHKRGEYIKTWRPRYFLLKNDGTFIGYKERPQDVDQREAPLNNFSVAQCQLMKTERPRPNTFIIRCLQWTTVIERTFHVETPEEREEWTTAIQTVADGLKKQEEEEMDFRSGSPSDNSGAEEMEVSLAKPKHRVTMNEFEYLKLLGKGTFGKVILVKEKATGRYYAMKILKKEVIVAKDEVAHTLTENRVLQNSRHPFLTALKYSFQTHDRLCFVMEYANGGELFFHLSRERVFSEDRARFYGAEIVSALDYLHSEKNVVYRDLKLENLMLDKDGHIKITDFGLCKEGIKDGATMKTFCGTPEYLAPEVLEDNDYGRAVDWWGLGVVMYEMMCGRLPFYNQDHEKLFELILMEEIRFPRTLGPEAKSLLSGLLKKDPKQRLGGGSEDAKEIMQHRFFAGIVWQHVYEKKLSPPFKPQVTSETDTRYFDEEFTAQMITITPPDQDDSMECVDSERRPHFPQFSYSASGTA
Summary of the method: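 Full-length His-tagged Akt1 (about 0.05 ng/μl final) preincubated 15 min at 22 °C with compound in 50 mM TRIS/HCl pH 7.5, 5 mM MgCl2, 1 mM DTT, 0.02% Triton X-100; biotinylated peptide substrate. Phosphopeptide detected by TR-FRET (Eu-chelate antibody to streptavidin-XL665) after 1 h at 22 °C.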

MCF7 = assay: Tumor cell proliferation assay (CellTiter-Glo, 72 h), MCF7; type: cell-based; conditions: Homo sapiens, 72h drug exposure
Protocol: Compounds were tested in a cell-based assay that measures the capacity of the compounds to inhibit tumour cell proliferation following a 72h drug exposure. Cell viability is determined using CellTiter-Glow® (CTG, Promega, cat# G7571/2/3). The CellTiter-Glo® Luminescent Cell Viability Assay is a homogeneous method to determine the number of viable cells in culture. Detection is based on using the luciferase reaction to measure the amount of ATP from viable cells. The amount of ATP in cells correlates with cell viability. Within minutes after a loss of membrane integrity, cells lose the ability to synthesize ATP, and endogenous ATPases destroy any remaining ATP; thus the levels of ATP fall precipitously.
Cells were plated at 3000-5000 cells/well (depending on the cell lines) in 90 μL growth medium on MTPs (Corning; #3603, black plate, clear flat bottom). For each cell line assayed, cells were plated onto a separate plate for determination of […] at t=0 hour and t=72 hour time points. Following overnight incubation at 37° C., chemiluminescence values for the t=0 samples were determined after adding 10 μl medium and 100 μl CTG solution according to manufacture protocol. Plates for the t=72 hour time points were treated with compounds diluted into growth medium at ten times final concentration added in 10 μL to the cell culture plate. Cells were then incubated for 72 hours at 37° C. Chemiluminescence values for the t=72 hour samples were determined. […] Experiments were controlled using a reference compound as standard.

| Structure (SMILES) | IC50 [1] [nM] | IC50 [2] [nM] | IC50 [3] [nM] | IC50 [4] [nM] | IC50 (MCF7) [nM] |
| --- | --- | --- | --- | --- | --- |
| Cc1ccc2nc(-c3ccc(C4(N)CCC4)cc3)c(-c3ccccc3)n2c1 [Example 2-7] | 1900 | 3960 | 487 | 203 |  |
| NC1(c2ccc(-c3nc4cc(F)ccn4c3-c3ccccc3)cc2)CCC1 [Example 2-67] | 1700 | 2000 | 195 | 64 | 1300 |
| CCOC(=O)c1cc(Br)c2nc(-c3ccc(C4(N)CCC4)cc3)c(-c3ccccc3)n2c1 [Example 2-77] | 8100 | 1720 | 474 |  | 1700 |
| Cc1cc(Br)cn2c(-c3ccccc3)c(-c3ccc(C4(N)CCC4)cc3)nc12 [Example 2-82] | 2100 | 3280 | 1020 |  | 1700 |
| Cc1cc(Br)c2nc(-c3ccc(C4(N)CCC4)cc3)c(-c3ccccc3)n2c1 [Example 2-83] | 1800 | 615 | 189 |  | 2000 |
| NC1(c2ccc(-c3nc4c(Br)cc(C(F)(F)F)cn4c3-c3ccccc3)cc2)CCC1 [Example 2-86] | 2000 | 2510 | 1200 |  | 1800 |
| Cc1c(-c2ccn[nH]2)cn2c(-c3ccccc3)c(-c3ccc(C4(N)CCC4)cc3)nc2c1C [Example 2-89] | 1900 | 1400 | 380 | 330 | 1700 |
| NC(=O)c1cc(Br)c2nc(-c3ccc(C4(N)CCC4)cc3)c(-c3ccccc3)n2c1 [Example 2-95] | 400 | 13 | 3 | 11 | 400 |
| NC(=O)c1cc(-c2cn[nH]c2)cn2c(-c3ccccc3)c(-c3ccc(C4(N)CCC4)cc3)nc12 [Example 2-97] | 1900 | 1590 | 377 | 67 | 1800 |
| Cc1cc(C(N)=O)cn2c(-c3ccccc3)c(-c3ccc(C4(N)CCC4)cc3)nc12 [Example 2-101] | 300 | 89 | 19 | 14 | 300 |
| Cc1cc(-c2cccnc2)cn2c(-c3ccccc3)c(-c3ccc(C4(N)CCC4)cc3)nc12 [Example 2-104] | 300 | 348 | 112 | 175 | 200 |
| Cc1cc(-c2cc(C)c3nc(-c4ccc(C5(N)CCC5)cc4)c(-c4ccccc4)n3c2)[nH]n1 [Example 2-105] | 2200 | 573 | 669 | 217 | 1800 |
| COc1cc(-c2cn[nH]c2)cn2c(-c3ccccc3)c(-c3ccc(C4(N)CCC4)cc3)nc12 [Example 13-0, 1-{4-[8-methoxy-3-phenyl-6-(1H-pyrazol-4-yl)-imidazo[1,2-a]pyridin-2-yl]-phenyl}-cyclobutylamine] | 1700 |  | 89 | 81 | 900 |

Other lines, results leading:

| IC50 [1] [nM] | IC50 [2] [nM] | IC50 [3] [nM] | IC50 [4] [nM] | IC50 (MCF7) [nM] | Structure (SMILES) |
| --- | --- | --- | --- | --- | --- |
| 1600 | 2030 | 138 | 287 |  | N#Cc1ccc2nc(-c3ccc(C4(N)CCC4)cc3)c(-c3ccccc3)n2c1 [Example 1-10] |
| 1400 | 1400 | 251 |  | 1600 | Cc1ccn2c(-c3ccccc3)c(-c3ccc(C4(N)CCC4)cc3)nc2c1Cl [Example 2-74] |
| 2100 | 1960 | 582 |  | 1700 | Cc1cc(Cl)cn2c(-c3ccccc3)c(-c3ccc(C4(N)CCC4)cc3)nc12 [Example 2-76] |
| 1900 | 1580 | 100 |  | 1100 | NC1(c2ccc(-c3nc4c(Cl)cc(Cl)cn4c3-c3ccccc3)cc2)CCC1 [Example 2-78] |
| 900 | 370 | 48 |  | 500 | COc1ccn2c(-c3ccccc3)c(-c3ccc(C4(N)CCC4)cc3)nc2c1C#N [Example 2-79] |
| 2000 | 1860 | 912 |  | 1800 | NC1(c2ccc(-c3nc4cc(Cl)c(Cl)cn4c3-c3ccccc3)cc2)CCC1 [Example 2-80] |
| 2200 | 3140 | 1340 |  | 1600 | Cc1c(Br)cn2c(-c3ccccc3)c(-c3ccc(C4(N)CCC4)cc3)nc2c1C [Example 2-84] |
| 1900 | 1800 | 161 | 5 | 1400 | NC1(c2ccc(-c3nc4c(Br)cc(Cl)cn4c3-c3ccccc3)cc2)CCC1 [Example 2-85] |
| 3700 | 10000 | 7530 |  | 2100 | Cc1c(Cl)cn2c(-c3ccccc3)c(-c3ccc(C4(N)CCC4)cc3)nc2c1-c1ccc(F)cc1 [Example 2-87] |
| 2500 | 8520 | 2570 | 187 | 2100 | Cc1c(Cl)cn2c(-c3ccccc3)c(-c3ccc(C4(N)CCC4)cc3)nc2c1-c1ccn[nH]1 [Example 2-88] |
| 2000 | 1610 | 678 |  | 1800 | COc1cncc(-c2cc(C)cn3c(-c4ccccc4)c(-c4ccc(C5(N)CCC5)cc4)nc23)c1 [Example 2-91] |
| 1800 | 292 | 58 |  | 1700 | NC(=O)c1cc(Br)cn2c(-c3ccccc3)c(-c3ccc(C4(N)CCC4)cc3)nc12 [Example 2-94] |
| 1900 | 1120 | 225 | 69 | 1900 | NC(=O)c1cc(-c2ccn[nH]2)cn2c(-c3ccccc3)c(-c3ccc(C4(N)CCC4)cc3)nc12 [Example 2-98] |
| 1800 | 90 | 93 | 177 | 1800 | NC(=O)c1cc(-c2cccnc2)cn2c(-c3ccccc3)c(-c3ccc(C4(N)CCC4)cc3)nc12 [Example 2-99] |
| 900 | 54 | 67 | 201 | 1200 | Cc1c(C(N)=O)cn2c(-c3ccccc3)c(-c3ccc(C4(N)CCC4)cc3)nc2c1C [Example 2-100] |
| 1900 | 158 | 33 | 106 | 1900 | Cc1cc(-c2cn[nH]c2)cn2c(-c3ccccc3)c(-c3ccc(C4(N)CCC4)cc3)nc12 [Example 2-102] |
| 200 | 719 | 230 | 99 | 200 | Cc1cc(-c2ccn[nH]2)cn2c(-c3ccccc3)c(-c3ccc(C4(N)CCC4)cc3)nc12 [Example 2-103] |
| 1800 | 2180 | 180 | 195 | 300 | NC1(c2ccc(-c3nc4ccc(-c5cnc[nH]5)cn4c3-c3ccccc3)cc2)CCC1 [Example 2-129] |
| 1300 |  | 30 | 141 | 600 | N#Cc1cc(Cl)c2nc(-c3ccc(C4(N)CCC4)cc3)c(-c3ccccc3)n2c1 [Example 15-0, 2-[4-(1-aminocyclobutyl)phenyl]-8-chloro-3-phenylimidazo[1,2-a]pyridine-6-carbonitrile] |
